Data as given in US7105548B2, “Heteroaryl substituted triazole modulators of metabotropic glutamate receptor-5” (Merck & Co., Inc., priority 2001, dated 2006).
Where a name gives a salt, the structure may show the parent alone.

Question: Which melting point does the source give for Clc1cccc(-n2cnc(-c3ccccn3)n2)c1 (as salt: hydrochloride) [Example 1, 2-[1-(3-chlorophenyl)-1H-1,2,4-triazol-3-yl]pyridine] here?
Answer: The melting point was 221 to 223 °C.

Question: Which melting point does the source give for N#Cc1cccc(-c2ncn(-c3ccccn3)n2)c1 (as salt: hydrochloride) [Example 3, 3-(1-pyridin-2-yl-1H-1,2,4-triazol-3-yl)benzonitrile] here?
Answer: Its melting point is 185 to 188 °C.

Question: For Clc1cccc(-c2ncn(-c3ccccn3)n2)c1 (as salt: hydrochloride) [Example 4, 2-[3-(3-chlorophenyl)-1H-1,2,4-triazol-1-yl]pyridine], which melting point is on record?
Answer: Its melting point is 125 to 128 °C.

Question: Which melting point does the source give for N#Cc1cccc(-n2cnc(-c3ccccn3)n2)c1 [Example 2, 3-(3-pyridin-2-yl-1H-1,2,4-triazol-1-yl)benzonitrile] here?
Answer: The melting point was 194 to 195 °C.
